The subject of data set [1] is Rattus norvegicus. Briefly: Minimal effective dose (MED) that significantly increased the number of shocks.(ip). The settings on record: read-out: MED.
Data set [2] concerns Mus musculus. Kind of data set: Anticonvulsant activity when bicuculline given subcutaneously in mouse. The data set is classed as functional. The conditions noted are these: sc.
For data set [3], the system named is Mus musculus. Briefly: Activity was measured by rotarod test by intraperitoneal administration in mouse. The data set is classed as functional. The settings on record: ip. For orientation: In the rotarod test animals must keep their balance on a rotating rod.
The subject of data set [4] is Rattus norvegicus. Briefly: Minimal effective dose (MED, ip) that significantly increased the number of shocks (anticonflict). The class given is functional. The settings on record: read-out: MED.
For data set [5], the system named is Rattus norvegicus. Briefly: Conditioned Avoidance response activity (CR2) at 10 mg/kg (i.p.) (No. of rats with blocked response/No. of treated rats). The class given is functional. The settings on record: route intraperitoneal.
The species entered for data set [6] is Mus musculus. Kind of data set: Anticonvulsant activity when maximal electroshock is induced in mouse. The class given is functional.
Data set [7] relates to Mus musculus. Briefly: (§1) Anticonvulsant activity when lethal dose of strychnine given subcutaneously in mouse. The conditions noted are these: sc.
Data set [8] relates to Mus musculus. Briefly: Antagonism of Diazepam muscle relaxant effect by compound (3 mg/kg, ip) was measured by the fallen/treated mice. The data set is classed as functional.
For data set [9], the system named is Rattus norvegicus. Briefly: Activity was measured by rotarod test by peroral administration in rat. The class given is functional. The conditions noted are these: po.
Data set [10] relates to Mus musculus. Kind of data set: Antagonism of Diazepam muscle relaxant effect by compound (60 mg/kg, ip) was measured as the ratio of fallen/treated mice. The class given is functional.
The test system of data set [11] is Mus musculus. Kind of data set: Dose that prevented tonic extensor seizures and death in 50% of the mice.(ip). The class given is functional.
Data set [12] addresses GABA-A receptor; anion channel. Briefly: Inhibition of [3H]diazepam binding to GABA-A central benzodiazepine receptor of rat brain homogenate.
For data set [13], the target named is GABA-A receptor; anion channel (Rattus norvegicus) (UniProt O09028+P15431+P18506+P18508+P19969+P20236+P23574+P23576+P28471+P28473+P30191+P62813+P63079+P63138+Q91ZM7+Q9ES14). Kind of data set: GABA ratio (IC50/IC50 in the presence of 10e-4 GABA). The data set is classed as protein-complex assay.
The nature of data set [14]: Lethal dose when given intraperitoneally in mice. The class given is toxicity, organism-based. The conditions noted are these: mouse, in vivo, ip.
In data set [15] the test system is Rattus norvegicus. Briefly: Minimal effective dose on rat for mortality after intraperitoneal administration. (1/3 animals died). The class given is functional. The conditions noted are these: ip, read-out: MED.
Data set [16] relates to Rattus norvegicus. Kind of data set: Minimal effective dose on rat for motor coordination after intraperitoneal administration. The class given is functional. The settings on record: ip, read-out: MED.
The subject of data set [17] is Rattus norvegicus. Briefly: Conditioned Avoidance response activity (CR2) at 20 mg/kg (i.p.) (No. of rats with blocked response/No. of treated rats). The class given is functional. The conditions noted are these: route intraperitoneal.
The test system of data set [18] is Mus musculus. Briefly: (§2) Anticonvulsant activity of the compound when lethal dose of strychnine given subcutaneously in mouse. The data set is classed as functional. The conditions noted are these: sc.
Data set [19] has as its system Mus musculus. Kind of data set: Minimal effective dose on mouse for motor coordination after intraperitoneal administration. The settings on record: ip, read-out: MED. The data set is classed as functional.
For data set [20], the species on record is Mus musculus. Kind of data set: Anticonvulsant activity of the compound when maximal electroshock is induced in mouse. The data set is classed as functional. (In general: In the maximal electroshock model the usual endpoint is tonic extension of the hind limbs.)
Data set [21] concerns Mus musculus. Kind of data set: Effective dose on mouse for motor coordination after intraperitoneal administration. The class given is functional.
Data set [22] relates to Mus musculus. Briefly: Minimal effective dose on mouse for body tone after intraperitoneal administration. The data set is classed as functional. The conditions noted are these: ip, read-out: MED.
For data set [23], the system named is Mus musculus. Kind of data set: Anticonvulsant activity of the compound when bicuculline given subcutaneously in mouse. The data set is classed as functional. The settings on record: sc.
In data set [24] the test system is Rattus norvegicus. Kind of data set: Effective dose on rat for motor coordination after intraperitoneal administration. The class given is functional.
Data set [25] deals with Mus musculus. Briefly: Minimal effective dose on mouse for mortality after intraperitoneal administration.(1/3 animals died). The class given is functional. The conditions noted are these: ip, read-out: MED.
Data set [26] concerns Mus musculus. Briefly: Effective dose on mouse for motility after intraperitoneal administration. The data set is classed as functional.
Data set [27] deals with Rattus norvegicus. Briefly: Minimal effective dose on rat for motility after intraperitoneal administration. The class given is functional. The settings on record: ip, read-out: MED.
In data set [28] the test system is Mus musculus. Kind of data set: Minimal effective dose on mouse for motility after intraperitoneal administration. The data set is classed as functional. The settings on record: ip, read-out: MED.
Data set [29] concerns Rattus norvegicus. Briefly: Minimal effective dose on rat for body tone after intraperitoneal administration. The class given is functional. The conditions noted are these: ip, read-out: MED.
In data set [30] the test system is Mus musculus. Kind of data set: Effective dose on mouse for body tone after intraperitoneal administration. The class given is functional.
Data set [31] deals with Rattus norvegicus. Kind of data set: Effective dose on rat for body tone after intraperitoneal administration. The data set is classed as functional.
Data set [32] relates to Rattus norvegicus. Kind of data set: Effective dose on rat for motility after intraperitoneal administration. The data set is classed as functional.
Data set [33] has as its system Mus musculus. Described as §1. The class given is ADME, organism-based. The settings on record: in vivo, sc.
Data set [34] relates to Mus musculus. The description is as §2. The data set is classed as ADME, organism-based. The settings on record: in vivo, sc.

What is called ED50 is the midpoint of the dose-response relation. A higher ED50 goes with a need for a large dose. As for `CN1C(=O)CN=C(c2ccccc2)c2cc(Cl)ccc21` [DIAZEPAM], the minimal effective dose was determined as 3 mg/kg in the data set with Rattus norvegicus [1] and 0.25 mg/kg in the data set with Rattus norvegicus [4]. Moreover, the 50% effective dose (ED50) with Mus musculus [2] turned out to be 1.4 mg/kg; in the data set on Mus musculus [3], 1 mg/kg; in the data set listed under Mus musculus [6], 14.2 mg/kg; with Mus musculus [7] it was 3 mg/kg; in the data set with Rattus norvegicus [9], 15 mg/kg. The molecule also displayed a CR2 with Rattus norvegicus [5] of 5 block/treat. The molecule also returned a Fallen/treated in the data set with Mus musculus [8] of 8.

As a reminder, the Ki is the equilibrium dissociation constant of an inhibitor or competing ligand from its target. In general, LD50 refers to the dose expected to kill half of the subjects tested. A lower LD50 goes with greater toxicity. Take `COc1ccc(-c2nnc3c4ccccc4c(N4CCCC4)nn23)cc1`: the Fallen/treated in the data set on Mus musculus [10] worked out at 5. The same molecule returned an ED50 in the data set with Mus musculus [11] of more than 100 mg/kg. The affinity in [12] corresponds to a Ki of 3.9 nM. Also, the Ratio in data set [13] came out at 1.1. In addition, the LD50 in data set [14] stood at 600 mg/kg.

Consider `COCCN(CCOC)c1nn2c(-c3ccc(OC)cc3)nnc2c2ccccc12`, for which the minimal effective dose was found to be 1000 mg/kg with Rattus norvegicus [15]; 100 mg/kg in the data set with Rattus norvegicus [16]; 6 mg/kg with Mus musculus [19]; 3.5 mg/kg in the data set on Rattus norvegicus [4]; 6 mg/kg with Mus musculus [22]; 300 mg/kg with Mus musculus [25]. The minimal effective dose in the data set on Rattus norvegicus [27] was 300 mg/kg; in the data set with Mus musculus [28], 10 mg/kg; with Rattus norvegicus [29], 300 mg/kg. The CR2 in the data set on Rattus norvegicus [17] is reported as 10 block/treat; with Rattus norvegicus [5], 4 block/treat. The ED50 with Mus musculus [18] was 50 mg/kg; in the data set on Mus musculus [3] it was 60 mg/kg; in the data set filed under Mus musculus [20], 50 mg/kg; in the data set on Mus musculus [11], 6.2 mg/kg; in the data set on Mus musculus [23], 4 mg/kg; with Rattus norvegicus [9], 300 mg/kg. Besides, the ED with Mus musculus [21] came to 60 mg/kg; with Rattus norvegicus [24], 600 mg/kg; in the data set on Mus musculus [26], 60 mg/kg; in the data set on Mus musculus [30], 100 mg/kg; in the data set with Rattus norvegicus [31], 600 mg/kg; with Rattus norvegicus [32], 1000 mg/kg. Besides, in data set [12], affinity was put at a Ki of 2.6 nM. In addition, the Ratio in data set [13] worked out at 1.83. The LD50 in data set [14] is 300 mg/kg.

Regarding `CNC1=Nc2ccc(Cl)cc2C(c2ccccc2)=[N+]([O-])C1` [CHLORDIAZEPOXIDE], the ED50 turned out to be 4.7 mg/kg in the data set with Mus musculus [2]; 11 mg/kg with Mus musculus [3]; 23 mg/kg in the data set filed under Mus musculus [6]; 7.5 mg/kg with Mus musculus [33]; 68.4 mg/kg in the data set with Rattus norvegicus [9].

Consider `Cc1nnc2ccc(-c3cccc(C(F)(F)F)c3)nn12` [CI-218872], for which the results for the ED50 in the data set with Mus musculus [3], in the data set listed under Mus musculus [20] and with Mus musculus [34] were 10 mg/kg, 30 mg/kg and 30 mg/kg, respectively.

Values taken from ChEMBL document CHEMBL1124125, “6-(Alkylamino)-3-aryl-1,2,4-triazolo[3,4-a]phthalazines. A new class of benzodiazepine receptor ligands” (J Med Chem, 1988).
